Experimental data reported in the NIST ThermoML archive (doi:10.1016/j.jct.2013.08.034).
Numbers after ± are expanded uncertainties.

Experiment: xn = mol fraction of the nth substance listed
Conditions: 101 kPa, Liquid; for electrical conductivity: Conductivity Meter Jenco 3107; for viscosity: Cone and plate viscometry; for mass density: Vibrating tube method

CC1COC(=O)O1 (centres undefined) [4-methyl-1,3-dioxolan-2-one] + CCCC[n+]1ccn(C)c1.O=S(=O)([N-]S(=O)(=O)C(F)(F)F)C(F)(F)F
Conditions	electrical conductivity [S/m]	mass density [kg/m3]	viscosity [mPa·s]
293.15 K, x2 = 0	–	–	2.86 ± 0.29
293.15 K, x2 = 0.0146	–	1216.01 ± 0.44	–
293.15 K, x2 = 0.0296	–	1226.83 ± 0.44	–
293.15 K, x2 = 0.0453	–	1237.53 ± 0.45	–
293.15 K, x2 = 0.0502	0.792 ± 0.024	–	–
293.15 K, x2 = 0.0616	–	1247.91 ± 0.46	–
293.15 K, x2 = 0.0732	–	1254.92 ± 0.46	–
293.15 K, x2 = 0.0997	–	1269.69 ± 0.47	–
293.15 K, x2 = 0.1	–	–	4.74 ± 0.48
293.15 K, x2 = 0.1004	0.92 ± 0.028	–	–
293.15 K, x2 = 0.2001	1.08 ± 0.032	–	–
293.15 K, x2 = 0.2002	–	–	7.21 ± 0.72
293.15 K, x2 = 0.2004	–	1314.48 ± 0.5	–
293.15 K, x2 = 0.3002	0.938 ± 0.028	–	–
293.15 K, x2 = 0.3007	–	–	10.74 ± 1.1
293.15 K, x2 = 0.3081	–	1348.61 ± 0.53	–
293.15 K, x2 = 0.3998	–	–	14.73 ± 1.5
293.15 K, x2 = 0.4004	–	1370.63 ± 0.55	–
293.15 K, x2 = 0.4005	0.814 ± 0.024	–	–
293.15 K, x2 = 0.5004	–	–	20.17 ± 2
293.15 K, x2 = 0.5007	0.752 ± 0.023	–	–
293.15 K, x2 = 0.5021	–	1389.4 ± 0.57	–
293.15 K, x2 = 0.5839	–	1401.58 ± 0.58	–
293.15 K, x2 = 0.6002	–	–	26.37 ± 2.6
293.15 K, x2 = 0.6003	0.669 ± 0.02	–	–
293.15 K, x2 = 0.6902	–	1414.42 ± 0.59	–
293.15 K, x2 = 0.6979	–	–	33.56 ± 3.4
293.15 K, x2 = 0.6989	0.578 ± 0.017	–	–
293.15 K, x2 = 0.7989	–	1424.99 ± 0.6	–
293.15 K, x2 = 0.8001	0.497 ± 0.015	–	–
293.15 K, x2 = 0.8015	–	–	42.09 ± 4.2
293.15 K, x2 = 0.8959	0.422 ± 0.013	–	50.34 ± 5.1
293.15 K, x2 = 0.898	–	1432.81 ± 0.61	–
298.15 K, x2 = 0	–	–	2.65 ± 0.27
298.15 K, x2 = 0.0146	–	1210.26 ± 0.43	–
298.15 K, x2 = 0.0296	–	1221.14 ± 0.44	–
298.15 K, x2 = 0.0453	–	1231.8 ± 0.45	–
298.15 K, x2 = 0.0502	0.899 ± 0.027	–	–
298.15 K, x2 = 0.0616	–	1242.22 ± 0.45	–
298.15 K, x2 = 0.0732	–	1249.22 ± 0.46	–
298.15 K, x2 = 0.0997	–	1264.08 ± 0.46	–
298.15 K, x2 = 0.1	–	–	4.29 ± 0.43
298.15 K, x2 = 0.1004	1.02 ± 0.03	–	–
298.15 K, x2 = 0.2001	1.21 ± 0.036	–	–
298.15 K, x2 = 0.2002	–	–	6.43 ± 0.65
298.15 K, x2 = 0.2004	–	1308.99 ± 0.5	–
298.15 K, x2 = 0.3002	1.06 ± 0.032	–	–
298.15 K, x2 = 0.3007	–	–	9.27 ± 0.93
298.15 K, x2 = 0.3081	–	1343.32 ± 0.53	–
298.15 K, x2 = 0.3998	–	–	12.6 ± 1.3
298.15 K, x2 = 0.4004	–	1365.43 ± 0.55	–
298.15 K, x2 = 0.4005	0.924 ± 0.028	–	–
298.15 K, x2 = 0.5004	–	–	17.01 ± 1.7
298.15 K, x2 = 0.5007	0.855 ± 0.026	–	–
298.15 K, x2 = 0.5021	–	1384.34 ± 0.56	–
298.15 K, x2 = 0.5839	–	1396.54 ± 0.58	–
298.15 K, x2 = 0.6002	–	–	21.71 ± 2.2
298.15 K, x2 = 0.6003	0.761 ± 0.023	–	–
298.15 K, x2 = 0.6902	–	1409.46 ± 0.59	–
298.15 K, x2 = 0.6979	–	–	27.64 ± 2.8
298.15 K, x2 = 0.6989	0.667 ± 0.02	–	–
298.15 K, x2 = 0.7989	–	1420.01 ± 0.6	–
298.15 K, x2 = 0.8001	0.581 ± 0.017	–	–
298.15 K, x2 = 0.8015	–	–	34.76 ± 3.5
298.15 K, x2 = 0.8959	0.49 ± 0.015	–	40.95 ± 4.1
298.15 K, x2 = 0.898	–	1427.78 ± 0.6	–
303.15 K, x2 = 0	–	–	2.44 ± 0.24
303.15 K, x2 = 0.0146	–	1205.11 ± 0.43	–
303.15 K, x2 = 0.0296	–	1216.01 ± 0.44	–
303.15 K, x2 = 0.0453	–	1226.7 ± 0.44	–
303.15 K, x2 = 0.0502	0.963 ± 0.029	–	–
303.15 K, x2 = 0.0616	–	1237.2 ± 0.45	–
303.15 K, x2 = 0.0732	–	1244.2 ± 0.45	–
303.15 K, x2 = 0.0997	–	1259.1 ± 0.46	–
303.15 K, x2 = 0.1	–	–	3.84 ± 0.39
303.15 K, x2 = 0.1004	1.16 ± 0.035	–	–
303.15 K, x2 = 0.2001	1.35 ± 0.041	–	–
303.15 K, x2 = 0.2002	–	–	5.81 ± 0.58
303.15 K, x2 = 0.2004	–	1303.96 ± 0.5	–
303.15 K, x2 = 0.3002	1.21 ± 0.036	–	–
303.15 K, x2 = 0.3007	–	–	8.07 ± 0.81
303.15 K, x2 = 0.3081	–	1338.4 ± 0.52	–
303.15 K, x2 = 0.3998	–	–	10.8 ± 1.1
303.15 K, x2 = 0.4004	–	1360.5 ± 0.54	–
303.15 K, x2 = 0.4005	1.07 ± 0.032	–	–
303.15 K, x2 = 0.5004	–	–	14.41 ± 1.4
303.15 K, x2 = 0.5007	0.963 ± 0.029	–	–
303.15 K, x2 = 0.5021	–	1379.5 ± 0.56	–
303.15 K, x2 = 0.5839	–	1391.7 ± 0.57	–
303.15 K, x2 = 0.6002	–	–	18.4 ± 1.9
303.15 K, x2 = 0.6003	0.86 ± 0.026	–	–
303.15 K, x2 = 0.6902	–	1404.6 ± 0.58	–
303.15 K, x2 = 0.6979	–	–	22.9 ± 2.3
303.15 K, x2 = 0.6989	0.764 ± 0.023	–	–
303.15 K, x2 = 0.7989	–	1415.1 ± 0.59	–
303.15 K, x2 = 0.8001	0.665 ± 0.02	–	–
303.15 K, x2 = 0.8015	–	–	28.81 ± 2.9
303.15 K, x2 = 0.8959	0.563 ± 0.017	–	33.59 ± 3.4
303.15 K, x2 = 0.898	–	1422.88 ± 0.6	–
308.15 K, x2 = 0	–	–	2.23 ± 0.22
308.15 K, x2 = 0.0146	–	1199.79 ± 0.42	–
308.15 K, x2 = 0.0296	–	1210.69 ± 0.43	–
308.15 K, x2 = 0.0453	–	1221.41 ± 0.44	–
308.15 K, x2 = 0.0502	1.05 ± 0.032	–	–
308.15 K, x2 = 0.0616	–	1231.88 ± 0.44	–
308.15 K, x2 = 0.0732	–	1238.89 ± 0.45	–
308.15 K, x2 = 0.0997	–	1253.78 ± 0.45	–
308.15 K, x2 = 0.1	–	–	3.51 ± 0.35
308.15 K, x2 = 0.1004	1.3 ± 0.039	–	–
308.15 K, x2 = 0.2001	1.51 ± 0.045	–	–
308.15 K, x2 = 0.2002	–	–	5.1 ± 0.51
308.15 K, x2 = 0.2004	–	1298.88 ± 0.49	–
308.15 K, x2 = 0.3002	1.36 ± 0.041	–	–
308.15 K, x2 = 0.3007	–	–	7.11 ± 0.71
308.15 K, x2 = 0.3081	–	1333.39 ± 0.52	–
308.15 K, x2 = 0.3998	–	–	9.42 ± 0.95
308.15 K, x2 = 0.4004	–	1355.48 ± 0.54	–
308.15 K, x2 = 0.4005	1.22 ± 0.037	–	–
308.15 K, x2 = 0.5004	–	–	12.36 ± 1.2
308.15 K, x2 = 0.5007	1.1 ± 0.033	–	–
308.15 K, x2 = 0.5021	–	1374.5 ± 0.56	–
308.15 K, x2 = 0.5839	–	1386.81 ± 0.57	–
308.15 K, x2 = 0.6002	–	–	15.75 ± 1.6
308.15 K, x2 = 0.6003	0.972 ± 0.029	–	–
308.15 K, x2 = 0.6902	–	1399.67 ± 0.58	–
308.15 K, x2 = 0.6979	–	–	19.44 ± 1.9
308.15 K, x2 = 0.6989	0.859 ± 0.026	–	–
308.15 K, x2 = 0.8001	0.755 ± 0.023	–	–
308.15 K, x2 = 0.8015	–	–	24.1 ± 2.4
308.15 K, x2 = 0.8959	0.642 ± 0.019	–	27.95 ± 2.8
